Laboratory results from patent US20190031650A1, “DNA ALKYLATION AND CROSS-LINKING AGENTS AS COMPOUNDS AND PAYLOADS FOR TARGETED THERAPIES” (YALE UNIVERSITY, priority 2016, published 2019).
Entries after “also recorded” stand apart in the source; their conditions may differ.

Columns and labels:
linearized pBR322 DNA = assay: DNA alkylation assay (electrophoretic gel assay) with linearized pBR322 DNA; assay type: biochemical; conditions: 37° C.; for DNA cross-linking: 10 μM
Experimental: FIG. 17 A. DNA alkylation assay employing linearized pBR322 DNA and the pyridone derivatives 17a or 17b or the unsaturated imines 15a or 15b. Conditions: Linearized pBR322 DNA (20 μM in base pairs (bps)), 15a (100, 10, 1, 0.5, or 0.1 μM), 15b (500, 100, 10, or 1 μM), 17a (500 or 100 μM) or 17b (500 or 100 μM), 37° C., 15 h. Cisplatin (CP; 100 μM) and methyl methanesulfonate (MMS; 500, 100, or 10 μM) were used as positive controls for DNA cross-linking and alkylation, respectively. DNA was visualized using SybrGold. B. DNA alkylation assay employing linearized pBR322 DNA and the unsaturated imine 15a. Conditions: Linearized pBR322 DNA (20 μM in base pairs), 15a (100, 10, 1, 0.1, 0.05, 0.01, or 0.005 μM), 37° C., 15 h.
FIG. 19 A. Structures of the dimer 15c and the gem-dimethyl derivative 15d. B. DNA alkylation assay employing linearized pBR322 DNA and the dimer 15c or the gem-dimethyl derivative 15d. Conditions: Linearized pBR322 DNA (20 μM in base pairs), 15c (10 μM) or 15d (500 or 100 μM), 37° C., 0.1-15 h.
B. DNA alkylation assay employing linearized pBR322 DNA and the unsaturated lactam 19 or the unsaturated imine 15j. Conditions: Linearized pBR322 DNA (20 μM in base pairs), 19 (500, 100, 10, or 1 μM) or 15j (500, 100, 10, or 1 μM), 37° C., 15 h.
Conditions: Linearized pBR322 DNA (20 μM in base pairs), 15h (1, 0.1, or 0.01 μM), 15i (1, 0.1, or 0.01 μM), 15f (1, 0.1, or 0.01 μM), 15g (1, 0.1, or 0.01 μM), 15a (1, 0.1, or 0.01 μM), 15e (1, 0.1, or 0.01 μM), 37° C., 15 h. Methyl methanesulfonate (MMS; 500 or 100 μM) was used as a positive control for DNA alkylation. DNA was visualized using SybrGold.
The activity of 15a, 15b, 17a, and 17b was evaluated in a DNA alkylation assay. Plasmid pBR322 DNA was treated with EcoRI-HF in Cutsmart buffer, and the resulting linearized DNA was incubated with 15a, 15b, 17a, or 17b for 15 h at 37° C. The DNA was then denatured, and the sample was eluted on a 1% neutral agarose gel. DNA was visualized with SybrGold. Cisplatin (CP, 100 μM) and methyl methanesulfonate (MMS, 500, 100, or 10 μM) were used as positive controls for DNA cross-linking and alkylation, respectively. […] The streaking of DNA induced by 15a and 15b parallels that observed with 500 μM of MMS and derives from the presence of shorter DNA strands that are formed by thermal or alkaline denaturation of extensively-alkylated (or in the case of MMS, methylated) DNA.^16 Further evidence for direct alkylation by 15a and 15b is presented in the cross-linking study outlined below.
The […] plasmid pBR322 was propogated in DH5a, isolated by MaxiPrep (Qiagen), and linearized with 5 U/μg EcoRI (NEB). The cut plasmid was column purified and eluted into 10 mM Tris pH 8.0. For each reaction, 130 ng of DNA (20 μM base pairs) was incubated with compound in a 10 μL total volume. Reactions proceeded for 15 h at 37° C., unless otherwise noted. Compounds were diluted in DMSO such that each reaction consisted of a fixed 5% DMSO concentration. Pure MMS (Alfa Aesar) and cisplatin (Biovision) stock solutions were diluted into DMSO immediately prior to use. After incubation, 35 μL of denaturation buffer (6% sucrose, 1% sodium hydroxide, 0.04% bromophenol blue) was added to each reaction. Non-denatured control samples were diluted with 6% sucrose, 0.04% bromophenol blue. Samples were vortexed for 1 min, left at room temperature for 15 min, and then immediately frozen at −80° C. Thawed samples were then loaded onto a 1% agarose Tris-Borate-EDTA (TBE) gel stained with SybrGold (Molecular Probes) and run in TBE buffer for 1 hour at 120V.

calf thymus DNA (ctDNA) = assay: DNA melting temperature analysis (UV thermal denaturation); assay type: binding
Experimental: (§1) Conditions: 2.09 mM NaH2PO4, 7.13 mM Na2HPO4, 928 μM Na2EDTA, 1.01 mM DMSO, pH 7.18. The imine 15a was incubated with ctDNA for 5 min, 1 h, 3 h, 6 h, or 15 h prior to UV thermal denaturation experiments (260 nm, heating rate: 0.5° C./min). [DNA]=32.0 mM bps. The Tm was defined as the temperature at which half of the duplex DNA was unwound, and was determined by the maximum of the first derivative of the thermal denaturation profile.
as §1, with “pyridone 17a” for “imine 15a”, “for” for “for 5 min, 1 h,”, “3” for “3 h, 6 h, or 15”
A DNA melting temperature analysis was conducted to determine if the variance in DNA alkylation activity between the pyridones and the unsaturated imines was due to differences in DNA binding affinity. The hyperchromicity of calf thymus DNA (ctDNA) with increasing temperature was measured at 260 nm in the presence of varying concentrations of 15a or 17a. The Tm was defined as the temperature at which half of the duplex DNA was unwound and was determined by the maximum of the first derivative of the thermal denaturation profile. […] The inventors hypothesized that this was due to an initial binding of 15a to the duplex followed by slow alkylation and degradation. To probe this, they repeated the plasmid alkylation assay using 15a and evaluated the extent of DNA alkylation as a function of time.
UV thermal denaturation samples were prepared by mixing calf thymus DNA [32.0 mM base pairs (bps)] in 2.09 mM NaH2PO4, 7.13 mM Na2HPO4, 928 μM Na2EDTA, 1.01 mM DMSO, pH 7.18 to a final volume of 1.0 mL. Samples were subjected to sonication (6 h) at 25° C. to effect complete dissolution. After incubation with 15a, 15b, 17a, and 17b for 5 min, 1 h, 3 h, 6 h, or 15 h, the UV thermal denaturation spectra of the samples were recorded at 260 nm as a function of temperature (55→80° C., heating rate: 0.5° C./min). First derivative plots were used to determine the denaturation temperature.

[1] = tested on: colibactin peptidase ClbP; conditions: earlier publication (ref. 10); cited from earlier work
[2] = tested on: colibactin peptidase ClbP; assay: LC-HRMS analysis for the in vivo cleavage of synthetic 6 by ClbP; assay type: cell-based; conditions: 50 μM in E. coli DH10B pClbP culture, 37° C., 24 h
Experimental: E. coli DH10B pClbP (pPEB018) and the bacteria harboring the empty vector pBAD18 (as previously reported^3) were grown in LB medium supplemented with 100 μg/mL ampicillin. The next morning, 50 μL of these saturated cultures were used to inoculate 2.5 mL of LB medium containing 100 μg/mL ampicillin. Cultures were incubated at 37° C. with shaking at 250 rpm. At an OD600 of 0.4-0.5, cultures were induced with L-arabinose and left to grow for another 30 min. Then, the synthetic 6 substrate (10 mM stock solution in DMSO) or DMSO (vector control) was added to each culture to a final concentration of 50 μM, and incubated at 37° C. for 24 h. At the designated time point, the cultures were extracted with organic solvent and analyzed by LC-HRMS on a Phenomenex C18-A column (150×4.6 mm, 180 Å, 5 μm particle size, Agilent) with a water:acetonitrile (ACN) gradient containing 0.1% formic acid 0.7 mL/min: 1-2 min, 5% ACN; ramp to 98% ACN over 18 min; hold for 5 min at 100% ACN.

[3] = linearized pBR322 DNA (20 μM bp), 15 h
[4] = 2 bp equiv, incubation 5 min to 15 h
[5] = linearized pBR322 DNA (20 μM bp), 15 h, concentrations up to 500 μM

SMILES: C[C@H]1CCC(C2=C(CC(=O)NCc3nc(-c4nc(C(=O)NCCN(C)C)cs4)cs3)C3(CC3)NC2=O)=N1 [15a]
- extent of DNA damage, dose response (linearized pBR322 DNA; 5 nM, 15 h (FIG. 17B)): negligible
- extent of DNA alkylation as a function of time (linearized pBR322 DNA; 1 μM, 0.1-15 h (FIG. 18C)): alkylation activity correlated approximately with the decrease in duplex stability
- DNA damage, dose response (linearized pBR322 DNA; 50 or 10 nM, 15 h (FIG. 17B)): small amounts of DNA damage
- DNA alkylation, dose response (linearized pBR322 DNA; concentrations as low as 100 nM, 15 h (FIG. 17B)): extensive DNA alkylation
- DNA alkylation (linearized pBR322 DNA; [3]): extensively alkylated DNA
- DNA alkylation activity relative to 15b (linearized pBR322 DNA; linearized pBR322 DNA, 15 h (FIG. 17A)): significantly more active than the N-methylamide 15b
- time dependence of the effect on melting temperature / duplex stability (calf thymus DNA (ctDNA); 1 or 2 bp equiv, incubation 5 min, 1 h, 3 h, 6 h or 15 h): time-dependent effects on duplex stability; also recorded: Time-dependent modulation of the melting temperature
- duplex stability (calf thymus DNA (ctDNA); longer incubations (3-15 h), 1 or 2 bp equiv): duplex stability decreased
- increase in Tm (calf thymus DNA (ctDNA); rligand/bp=2): 1.8 °C
- duplex stability (calf thymus DNA (ctDNA); times less than 1 h, 1 or 2 bp equiv): stabilization of the duplex was observed

SMILES: CNC(=O)c1csc(-c2csc(CNC(=O)CC3=C(C4=N[C@@H](C)CC4)C(=O)NC34CC4)n2)n1 [15b]
- DNA alkylation (linearized pBR322 DNA; [3]): extensively alkylated DNA
- modulation of the melting temperature of calf thymus DNA (calf thymus DNA (ctDNA); 1 bp equiv, incubation 5 min, 3 h or 15 h): no significant modulation
- modulation of the melting temperature of calf thymus DNA (calf thymus DNA (ctDNA); [4]): no significant modulation

SMILES: C[C@H]1CCC(C2=C(CC(=O)NCc3nc(-c4nc(C(=O)NCCCN(C)CCCNC(=O)c5csc(-c6csc(CNC(=O)CC7=C(C8=N[C@@H](C)CC8)C(=O)NC78CC8)n6)n5)cs4)cs3)C3(CC3)NC2=O)=N1 [15c]
- DNA cross-linking (linearized pBR322 DNA; 3 h): a clear cross-linked band
- DNA cross-linking (linearized pBR322 DNA; later timepoints (6 or 15 h)): this cross-linked band diminished

SMILES: C[C@H]1CCC(C2=C(CC(=O)NCc3nc(-c4nc(C(=O)NCCN(C)C)cs4)cs3)C(C)(C)NC2=O)=N1 [15d]
- DNA alkylation activity (linearized pBR322 DNA; [5]): did not alkylate DNA

SMILES: C[C@H]1CCC(C2=C(CC(=O)N(C)Cc3nc(-c4nc(C(=O)NCCN(C)C)cs4)cs3)C3(CC3)NC2=O)=N1 [15j]
- DNA alkylation / decomposition of the DNA (linearized pBR322 DNA; 10 or 1 μM, 15 h (FIG. 21B)): extensive decomposition of the DNA
- DNA alkylation potency relative to lactam 19 (linearized pBR322 DNA; 15 h (FIG. 21B)): significantly more potent

SMILES: C[C@H](N)CCc1c2c(cc(=O)n1Cc1nc(-c3nc(C(=O)NCCN(C)C)cs3)cs1)C1(CC1)NC2=O [17a]
- DNA alkylation activity (linearized pBR322 DNA; [5]): neither of the pyridone derivatives 17a or 17b displayed measurable activity
- effect of increasing amounts on melting temperature of ctDNA (calf thymus DNA (ctDNA); incubated with ctDNA for 3 h, 260 nm): dose-dependent increase in the melting temperature
- increase in Tm (calf thymus DNA (ctDNA); ratio of compound to base pairs of 4.0, incubated 3 h): 3.8 °C
- increase in Tm (calf thymus DNA (ctDNA); rligand/bp=2): 2.8 °C

SMILES: CNC(=O)c1csc(-c2csc(Cn3c(CC[C@H](C)N)c4c(cc3=O)C3(CC3)NC4=O)n2)n1 [17b]
- DNA alkylation activity (linearized pBR322 DNA; [5]): neither of the pyridone derivatives 17a or 17b displayed measurable activity
- modulation of the melting temperature of calf thymus DNA (calf thymus DNA (ctDNA); [4]): no significant modulation

SMILES: C[C@@H](CCC(=O)C1=C(CC(=O)N(C)Cc2nc(-c3nc(C(=O)NCCN(C)C)cs3)cs2)C2(CC2)NC1=O)NC(=O)OC(C)(C)C [compound 19]
- DNA alkylation activity (linearized pBR322 DNA; 500 μM, 15 h (FIG. 21B)): weak DNA alkylation activity

SMILES: CCCCCCCCCCCCCC(=O)N[C@H](CC(N)=O)C(=O)N[C@@H](C)CCc1c2c(cc(=O)n1Cc1nc(-c3nc(C(=O)O)cs3)cs1)C1(CC1)NC2=O [precolibactin C (6)]
- substrate for ClbP [1]: demonstrated to be a substrate for ClbP
- cleavage by ClbP [2]: converted to N-myristoyl-D-Asn and its corresponding colibactin by colibactin peptidase ClbP; also recorded: converted to N-myristoyl-D-Asn and its corresponding colibactin in a ClbP-dependent manner
